{
  "source": "paper PMC2649750",
  "about": "(The Journal of pharmacology and experimental therapeutics, 2008)",
  "biological_target": "tubulin",
  "experiment": "inhibition of [3H]vinblastine binding",
  "design": "species or system Bos taurus",
  "data": [
    {"smiles": "C/C=C/C(O)C(C)(C)[C@@H]1C\\C=C/C=C\\C=C/[C@H](OC)Cc2nc(co2)C(=O)O[C@H](C(C)(C)C(O)/C=C/C)C/C=C\\C=C/C=C[C@H](OC)Cc2nc(co2)C(=O)O1", "note": "(stereo partly shown) [disorazole C1]", "values": [
      {"measurement": "Ki", "value": "4.5 ± 0.6", "unit": "µM"}
    ]}
  ]
}
